Among the test systems are EKVX NSCLC; M19-MEL melanoma; OVCAR-4 ovarian; RPMI-8226 leukemia; SK-OV-3 ovarian; SN12C renal; SNB-19 CNS; UO-31 renal; SNB-78 CNS; MDA-MB-231 breast.
Assay in all cases: growth of human tumour cells (NCI), 48 h

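Results reflect a 48-hour exposure of cells in 96-well plates to compound at five concentrations. GI50 is the concentration that inhibits growth by half. TGI: total growth inhibition.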

Drawing on PubChem BioAssay (NCI), this text covers TGI and GI50 for 13 molecules.

With `CCCOP1(=O)C=C(C)C(Cl)=C(C)C1` (configuration not stated), the TGI with EKVX NSCLC is > 100 µM; in the assay on M19-MEL melanoma, 52.7 µM; with OVCAR-4 ovarian, 86.7 µM; in the assay with RPMI-8226 leukemia, 35.5 µM; in the assay on SK-OV-3 ovarian, > 100 µM; in the assay on SN12C renal it was 58.6 µM. For the same molecule, the TGI with SNB-19 CNS and with UO-31 renal was > 100 µM in each case.
Turning to `N.N.NCCCCN.O=C([O-])CC(=O)[O-].O=C([O-])CC(=O)[O-].[Pt+4].[Pt+4]`, the GI50 is > 100 µM in the assay on EKVX NSCLC; > 100 µM in the assay on OVCAR-4 ovarian; > 100 µM with RPMI-8226 leukemia; > 100 µM with SK-OV-3 ovarian; 58.5 µM with SN12C renal; > 100 µM in the assay with SNB-19 CNS. Also, the results for the GI50 in the assay on SNB-78 CNS and with UO-31 renal were > 100 µM and 59.4 µM, respectively. In addition, the TGI in the assay on EKVX NSCLC, with OVCAR-4 ovarian, with RPMI-8226 leukemia, in the assay with SK-OV-3 ovarian, in the assay with SN12C renal and with SNB-19 CNS was > 100 µM each time. The TGI with SNB-78 CNS and in the assay with UO-31 renal was > 100 µM in each case.
For `CC1=C2C(=CC(C)(CO)C2O)C(=O)C(C)(O)C12CC2` (configuration not stated), the TGI in the assay on EKVX NSCLC was found to be 0.0335 µM; in the assay with M19-MEL melanoma, 0.0116 µM; in the assay with OVCAR-4 ovarian, 0.0131 µM; in the assay on SK-OV-3 ovarian it was 0.0424 µM; in the assay with SN12C renal it was 0.118 µM; in the assay with SNB-19 CNS it was 0.0422 µM. Besides, the TGI was 0.0479 µM with SNB-78 CNS and 0.039 µM with UO-31 renal. Moreover, the GI50 is 0.00378 µM in the assay with OVCAR-4 ovarian and 0.0164 µM in the assay with UO-31 renal.
Turning to `N#C[C@]12CC3(CC[C@H]1CC1(C2)OCCO1)OCCO3`, the TGI in the assay on M19-MEL melanoma, in the assay on OVCAR-4 ovarian, in the assay on RPMI-8226 leukemia, with SK-OV-3 ovarian, in the assay on SN12C renal and with SNB-19 CNS was > 100 µM throughout. In addition, the TGI with SNB-78 CNS and with UO-31 renal was > 100 µM in each case.
For the molecule `Nc1ccc(CCN2CCN(c3cccc(C(F)(F)F)c3)CC2)cc1`, the TGI in the assay with EKVX NSCLC, with M19-MEL melanoma, in the assay with RPMI-8226 leukemia, with SK-OV-3 ovarian, with SN12C renal and in the assay on SNB-19 CNS was > 100 µM throughout. Besides, in the assay with UO-31 renal, the TGI was > 100 µM.
For `O=[N+]([O-])c1ccc2c(c1)OCCOCCOc1ccc([N+](=O)[O-])cc1OCCOCCO2`, the TGI in the assay on EKVX NSCLC, in the assay with OVCAR-4 ovarian, with RPMI-8226 leukemia, with SK-OV-3 ovarian, in the assay on SN12C renal and in the assay on SNB-19 CNS was > 100 µM each time. The TGI in the assay with SNB-78 CNS and in the assay with UO-31 renal was > 100 µM each time.
Turning to `O=C1C(c2ccc(Cl)cc2)=[N+]([O-])c2ccccc21`, the TGI is 28.9 µM in the assay on EKVX NSCLC; > 100 µM in the assay on M19-MEL melanoma; > 100 µM with RPMI-8226 leukemia; > 100 µM in the assay with SK-OV-3 ovarian; 32.4 µM with SN12C renal; 53.8 µM in the assay with SNB-19 CNS. The TGI in the assay on UO-31 renal is > 100 µM.
With `O=C(c1ccccc1)c1ccc2cccc(O)c2n1`, the TGI in the assay on EKVX NSCLC is 69 µM; in the assay with M19-MEL melanoma it was > 100 µM; in the assay on OVCAR-4 ovarian, > 100 µM; in the assay on RPMI-8226 leukemia, > 100 µM; in the assay with SN12C renal, > 100 µM; in the assay on SNB-19 CNS, > 100 µM. The TGI in the assay with SNB-78 CNS and with UO-31 renal was > 100 µM each time.
`CC(C)(C)c1ccc(Oc2ccc(C#N)c(C#N)c2)c(C(C)(C)C)c1`: the TGI in the assay with EKVX NSCLC was > 100 µM; in the assay with OVCAR-4 ovarian, > 100 µM; with RPMI-8226 leukemia, 43.1 µM; in the assay on SK-OV-3 ovarian, > 100 µM; in the assay on SN12C renal, > 100 µM; in the assay with SNB-19 CNS, > 100 µM. Besides, the TGI in the assay with SNB-78 CNS was > 100 µM; in the assay with UO-31 renal, > 77.7 µM.
Turning to `Cc1ccc(C)c(NC(=O)CC2C(=O)Nc3ccccc3S2(=O)=O)c1` (configuration not stated), the TGI in the assay with EKVX NSCLC was > 100 µM; in the assay with M19-MEL melanoma it was > 100 µM; in the assay with OVCAR-4 ovarian, 38.7 µM; with RPMI-8226 leukemia it was > 100 µM; in the assay on SN12C renal, > 100 µM; in the assay with SNB-19 CNS it was > 100 µM. In addition, the TGI in the assay on SNB-78 CNS and in the assay on UO-31 renal was > 100 µM each time.
In the case of `Cc1cc(N(CCC#N)CCC#N)ccc1N=Nc1ccccc1[N+](=O)[O-]`, the TGI in the assay with EKVX NSCLC, with M19-MEL melanoma, in the assay on OVCAR-4 ovarian, in the assay with SK-OV-3 ovarian, in the assay with SN12C renal and with SNB-78 CNS was > 100 µM in each case. In the assay on UO-31 renal, the TGI is > 100 µM.
On to `O=P(Oc1ccccc1)(Oc1ccccc1)C(O)c1ccccc1` (configuration not stated), for which the GI50 is 26.5 µM in the assay with EKVX NSCLC; 71.3 µM in the assay on MDA-MB-231 breast; 58.2 µM with OVCAR-4 ovarian; 33.3 µM with RPMI-8226 leukemia; > 100 µM in the assay on SK-OV-3 ovarian; > 100 µM with SN12C renal. The values for the GI50 in the assay with SNB-19 CNS and with UO-31 renal were > 100 µM and 29.8 µM, respectively. Also, the TGI in the assay with EKVX NSCLC, in the assay on MDA-MB-231 breast, in the assay with OVCAR-4 ovarian, in the assay with RPMI-8226 leukemia, in the assay on SK-OV-3 ovarian and with SN12C renal was > 100 µM throughout. Also, the TGI in the assay on SNB-19 CNS and with UO-31 renal was > 100 µM each time.
As to `COc1cc(-c2cc(C(=O)Nc3nc4ccccc4s3)nc3cc(-c4ccccc4)nn23)cc(OC)c1OC`, the GI50 is 42.9 µM in the assay on EKVX NSCLC; 5.63 µM with MDA-MB-231 breast; > 100 µM with OVCAR-4 ovarian; > 100 µM in the assay on RPMI-8226 leukemia; 12.5 µM with SK-OV-3 ovarian; 85.1 µM in the assay on SN12C renal. Besides, the GI50 with SNB-19 CNS is 16.7 µM; in the assay with UO-31 renal it was > 100 µM. In addition, the TGI is > 100 µM with EKVX NSCLC; 69.2 µM with MDA-MB-231 breast; > 100 µM in the assay on OVCAR-4 ovarian; > 100 µM in the assay on RPMI-8226 leukemia; 27.9 µM in the assay with SK-OV-3 ovarian; > 100 µM with SN12C renal. Also, the values for the TGI in the assay on SNB-19 CNS and in the assay with UO-31 renal were 69.5 µM and > 100 µM, respectively.
